Key:
Assay type in all cases: biochemical
[1] = target: T1, FLT3 kinase (FLT3-WT) (Homo sapiens, UniProt P36888); experiment: IC50 evaluation assay of FLT3 kinase inhibition (Caliper); conditions: 28° C.; average of two tests; read-out: IC50 (nM) inhibiting FLT3-WT kinase
T1 construct: purchased Carna 08-154
T1 sequence (P36888 27-993): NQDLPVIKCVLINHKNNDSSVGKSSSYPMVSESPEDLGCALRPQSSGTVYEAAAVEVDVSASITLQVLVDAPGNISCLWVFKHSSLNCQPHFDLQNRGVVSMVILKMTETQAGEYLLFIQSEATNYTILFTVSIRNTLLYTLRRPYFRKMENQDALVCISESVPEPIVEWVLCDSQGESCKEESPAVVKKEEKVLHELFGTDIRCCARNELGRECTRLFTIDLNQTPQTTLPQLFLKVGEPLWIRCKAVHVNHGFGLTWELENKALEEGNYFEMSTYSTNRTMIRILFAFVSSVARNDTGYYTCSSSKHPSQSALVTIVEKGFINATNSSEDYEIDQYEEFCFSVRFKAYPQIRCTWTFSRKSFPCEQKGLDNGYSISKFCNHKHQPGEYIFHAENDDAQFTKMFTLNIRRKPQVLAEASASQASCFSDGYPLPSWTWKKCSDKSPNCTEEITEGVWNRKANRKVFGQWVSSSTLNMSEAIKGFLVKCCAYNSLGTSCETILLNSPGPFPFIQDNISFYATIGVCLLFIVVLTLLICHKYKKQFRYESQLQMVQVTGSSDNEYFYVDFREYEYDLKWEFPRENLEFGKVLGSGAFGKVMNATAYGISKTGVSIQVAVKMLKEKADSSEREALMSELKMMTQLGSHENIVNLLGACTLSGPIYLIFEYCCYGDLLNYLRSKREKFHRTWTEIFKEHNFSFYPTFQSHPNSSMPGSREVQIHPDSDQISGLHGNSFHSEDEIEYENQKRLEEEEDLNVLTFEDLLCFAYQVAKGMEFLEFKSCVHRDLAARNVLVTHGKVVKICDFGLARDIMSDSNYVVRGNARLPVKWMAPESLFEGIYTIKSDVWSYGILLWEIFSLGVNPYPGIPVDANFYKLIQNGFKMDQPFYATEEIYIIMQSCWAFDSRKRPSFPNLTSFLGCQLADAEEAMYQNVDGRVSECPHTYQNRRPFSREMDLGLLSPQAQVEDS
Description: (§1) 1. The compound was dissolved in 100% DMSO, diluted into solutions with appropriate concentration gradients with water according to experimental requirement, and added to a 96-well plate.
2. FLT3 kinase (Carna, Cat. No. 08-154, Lot. No. 07CBS-2350), FLT3-ITD kinase (Invitrogen, Cat. No. PV6191, Lot. No. 1753453) and FLT3-D835Y kinase (Invitrogen, Cat. No. PR7450A, Lot. No. 1629729C) were diluted to the optimum concentration with the following buffer solution: 50 mM HEPES, pH 7.5, 0.0015% Brij-35, 10 mM MgCl2, 2 mM DTT. Transfer to the 96-well plate and incubate with the compound at 28° C. for a period of time.
(§2) 3. The buffer solution (100 mM HEPES, pH 7.5, 0.0015% Brij-35, 0.2% Coating Reagent and […]) was added to terminate the reaction.
(§3) 4. The conversion rate was read with Caliper Reader. The inhibition rate was calculated as the average of two tests.

[2] = target: T2, HCK kinase (Homo sapiens, UniProt P08631); experiment: IC50 evaluation assay of Src family kinase inhibition: HCK; conditions: 28° C.; average of two tests; read-out: IC50 (nM) inhibiting Src family kinase HCK
T2 construct: purchased BPS 40440
Description: as §1
(§4) 2. c-Src kinase (Carna, Cat. No. 08-173, Lot. No. 05CBS-1367), LYNαkinase (Carna, Cat. No. 08-171, Lot. No. 06CBS-3296D), FYN kinase (Carna, Cat. No. 08-068, Lot. No. 05CBS-1032), LCK kinase (Carna, Cat. No. 08-170, Lot. No. 07CBS-2482), HCK kinase (BPS, Cat. No. 40440, Lot. No. 1001), FGR kinase (Carna, Cat. No. 08-166, Lot. No. 05CBS-2781), YES kinase (Carna, Cat. No. 08-175, Lot. No. 06CBS-3247) were diluted to the optimum concentration with the following buffer solution: 50 mM HEPES, pH 7.5, 0.0015% Brij-35, 10 mM MgCl2, 2 mM DTT. Transfer to the 96-well plate and incubate with the compound at 28° C. for a period of time.
as §2, §3

[3] = target: T3, FGR kinase (Homo sapiens, UniProt P09769); experiment: IC50 evaluation assay of Src family kinase inhibition: FGR; conditions: 28° C.; average of two tests; read-out: IC50 (nM) inhibiting Src family kinase FGR
T3 construct: purchased Carna 08-166
Description: as §1, §4, §2, §3

[4] = target: T4, FYN kinase (Homo sapiens, UniProt P06241); experiment: IC50 evaluation assay of Src family kinase inhibition: FYN; conditions: 28° C.; average of two tests; read-out: IC50 (nM) inhibiting Src family kinase FYN
T4 construct: purchased Carna 08-068
Description: as §1, §4, §2, §3

[5] = target: T5, LCK kinase (Homo sapiens, UniProt P06239); experiment: IC50 evaluation assay of Src family kinase inhibition: LCK; conditions: 28° C.; average of two tests; read-out: IC50 (nM) inhibiting Src family kinase LCK
T5 construct: purchased Carna 08-170
Description: as §1, §4, §2, §3

T3 sequence (P09769 whole entry): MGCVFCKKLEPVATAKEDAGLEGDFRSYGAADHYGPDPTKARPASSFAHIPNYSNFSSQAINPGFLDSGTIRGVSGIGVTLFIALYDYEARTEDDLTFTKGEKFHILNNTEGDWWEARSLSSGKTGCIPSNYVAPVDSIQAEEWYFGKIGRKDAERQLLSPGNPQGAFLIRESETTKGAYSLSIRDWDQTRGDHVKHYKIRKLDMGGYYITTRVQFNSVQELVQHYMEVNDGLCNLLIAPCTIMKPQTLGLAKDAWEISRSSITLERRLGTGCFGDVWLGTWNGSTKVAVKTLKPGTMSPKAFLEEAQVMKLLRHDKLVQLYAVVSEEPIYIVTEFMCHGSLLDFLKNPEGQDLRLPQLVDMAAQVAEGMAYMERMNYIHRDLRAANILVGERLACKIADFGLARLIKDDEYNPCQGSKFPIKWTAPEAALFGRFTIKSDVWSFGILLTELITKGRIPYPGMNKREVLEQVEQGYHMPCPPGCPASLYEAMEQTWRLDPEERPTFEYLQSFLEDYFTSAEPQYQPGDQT
T2 sequence (P08631 whole entry): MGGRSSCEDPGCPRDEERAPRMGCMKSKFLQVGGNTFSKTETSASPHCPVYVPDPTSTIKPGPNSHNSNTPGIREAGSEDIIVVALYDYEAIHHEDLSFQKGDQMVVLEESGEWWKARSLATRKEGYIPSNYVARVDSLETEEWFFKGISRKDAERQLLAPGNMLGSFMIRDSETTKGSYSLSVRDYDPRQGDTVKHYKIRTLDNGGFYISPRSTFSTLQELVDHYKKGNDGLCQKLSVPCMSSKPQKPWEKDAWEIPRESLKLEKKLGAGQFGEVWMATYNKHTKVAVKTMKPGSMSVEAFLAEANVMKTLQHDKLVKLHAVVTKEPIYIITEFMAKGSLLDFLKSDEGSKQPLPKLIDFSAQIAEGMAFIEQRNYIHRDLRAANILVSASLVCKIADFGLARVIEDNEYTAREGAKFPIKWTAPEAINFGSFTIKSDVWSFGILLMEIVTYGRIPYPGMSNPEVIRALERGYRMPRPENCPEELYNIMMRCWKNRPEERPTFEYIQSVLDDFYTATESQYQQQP
T5 sequence (P06239 whole entry): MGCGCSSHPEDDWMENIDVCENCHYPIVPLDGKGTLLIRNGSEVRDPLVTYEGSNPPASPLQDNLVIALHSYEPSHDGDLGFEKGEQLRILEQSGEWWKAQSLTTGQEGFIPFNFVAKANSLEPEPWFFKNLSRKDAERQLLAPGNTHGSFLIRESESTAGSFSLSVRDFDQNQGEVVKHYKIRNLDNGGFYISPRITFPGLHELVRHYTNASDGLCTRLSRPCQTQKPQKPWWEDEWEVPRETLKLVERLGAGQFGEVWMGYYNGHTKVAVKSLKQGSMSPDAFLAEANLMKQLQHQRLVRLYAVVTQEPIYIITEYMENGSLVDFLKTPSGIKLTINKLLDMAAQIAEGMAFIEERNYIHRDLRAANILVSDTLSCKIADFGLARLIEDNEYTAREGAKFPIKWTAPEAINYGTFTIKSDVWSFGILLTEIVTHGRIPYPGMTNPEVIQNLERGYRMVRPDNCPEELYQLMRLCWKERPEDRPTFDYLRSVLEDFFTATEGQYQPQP
T4 sequence (P06241 whole entry): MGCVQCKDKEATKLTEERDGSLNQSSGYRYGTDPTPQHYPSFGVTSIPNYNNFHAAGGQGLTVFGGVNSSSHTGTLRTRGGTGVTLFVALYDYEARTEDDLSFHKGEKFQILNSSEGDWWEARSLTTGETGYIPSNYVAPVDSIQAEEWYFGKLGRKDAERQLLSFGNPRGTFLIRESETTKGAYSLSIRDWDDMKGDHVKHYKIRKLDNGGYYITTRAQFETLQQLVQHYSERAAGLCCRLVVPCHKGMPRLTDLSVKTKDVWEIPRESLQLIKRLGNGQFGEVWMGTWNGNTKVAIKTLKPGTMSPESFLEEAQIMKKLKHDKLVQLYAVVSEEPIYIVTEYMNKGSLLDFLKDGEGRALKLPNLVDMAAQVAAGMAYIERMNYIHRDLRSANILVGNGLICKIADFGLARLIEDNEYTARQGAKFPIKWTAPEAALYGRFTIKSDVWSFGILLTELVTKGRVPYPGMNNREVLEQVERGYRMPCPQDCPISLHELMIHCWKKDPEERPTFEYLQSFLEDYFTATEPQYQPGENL

IC50 [1] [nM] | IC50 [2] [nM] | IC50 [3] [nM] | IC50 [4] [nM] | IC50 [5] [nM] | SMILES
< 5 | 27 | 11 | < 5 | < 5 | COc1cc(F)ccc1-c1c(C)sc2cnc(Nc3cnn(C4CCN(CCO)CC4)c3)nc12 [Compound 34, 2-[4-(4-{[7-(4-fluoro-2-methoxyphenyl)-6-methylthieno[3,2-d]pyrimidinyl-2-yl]amino}-1H-pyrazol-1-yl)-piperidinyl-1-yl]-1-ethanol]
0.28 | 30 | 14 | 3.7 | 5.5 | COc1cc(F)ccc1-c1c(C)sc2cnc(Nc3cnn(C4CCNCC4)c3)nc12 [Compound 31, N-[7-(4-fluoro-2-methoxyphenyl)-6-methylthieno[3,2-d]pyrimidinyl-2-yl]-1-(piperidinyl-4-yl)-1H-pyrazol-4-amine]
